Earlier results, collected in patent US6756047B2, “Method and compositions for treating persistent pulmonary hypertension using aralkyl ester soft drugs” (The University of Toledo, priority 2000, dated 2004).

Legend:
[1] = eye examination use
[2] = long duration of action; used clinically

Row | Compound | duration [1] | half-life (duration of action) [2]
1 | CN1[C@@H]2CC[C@H]1C[C@@H](OC(=O)C(CO)c1ccccc1)C2 (some centres unmarked) [Atropine, atropine] | several hour | 
2 | CC(C)NCC(O)COc1cccc2ccccc12 (centres unmarked) [Structure 1, propranolol] |  | several hour
